# Results taken from patent publication US20120183482A1, “MELANIN PRODUCTION INHIBITOR” (FUJIFILM CORPORATION, priority 2009, published 2012).
# Key:
# [1] = system: B16 melanoma cells; assay: Melanin production inhibition test; assay type: cell-based; conditions: for Melanin Production: no sample = 100; for IC50: Mus musculus, B16, read out from the melanin production inhibition curves (FIG. 1), read-out: IC50 values at which 50% of the melanin production was inhibited
# Description: B16 melanoma cells were seeded on 10% (v/v) FBS-containing MEM medium (minimum basal medium containing fetal bovine serum) so as to be 2.5×10^5 cells/well in a 12-well culture plate and were cultivated for 24 hours in a usual manner.
# (§1) After the pre-cultivation, the medium was replaced with a test medium and cultivation was carried out for 72 hours. As the test medium, there was employed a medium obtained by adding 0.25 mmol/L of theophylline, 0.5% (v/v) of dimethyl sulfoxide to the medium for the pre-cultivation, and each of various evaluation samples so as to be a concentration described in Table.
# The Salacia crude extract was prepared by the following method. After 0.5 kg of root and trunk parts of Salacia reticulate, Salacia oblonga, and Salacia chinensis were pulverized, 10 L of water was added thereto and extraction was performed under conditions of 100° C. and 1 hour. After the obtained extract solution was filtrated through a 100-mesh filter, spray drying was performed and a product obtained as 50 g of an extract powder was used.
# As ellagic acid, ellagic acid dihydrate manufactured by Wako Pure Chemical Industries, Ltd. was used.
# As arbutin, β-arbutin manufactured by Sigma-Aldrich was used.
# After the cultivation was finished, the cells were washed with PBS (phosphate buffer) and then a 1 mol/L aqueous sodium hydroxide solution containing 10% (v/v) dimethyl sulfoxide was added thereto. After the whole was subjected to an ultrasonic treatment at 50° C. for 30 minutes, absorbance of the solution at a wavelength of 400 nm was measured and was taken as a melanin amount in a well. Moreover, at the same time, measurement of the number of living cells by MTT assay was carried out in another culture plate (test conditions are in accordance to Example 2). Finally, the melanin amount in the well was normalized by the measurement value by the MTT assay and the resulting amount was taken as a melanin amount per unit cell.
# A melanin production inhibition rate (%) in the case where the evaluation sample was added was determined, the melanin amount in the case where no evaluation sample was added being regarded as 100.
# [2] = system: B16 melanoma cells; assay: Cytotoxicity test (MTT assay); assay type: cell-based; conditions: for Cell survival rate: 72 hours, no sample = 100
# Description: B16 melanoma cells were seeded on 10% (v/v) FBS-containing MEM medium so as to be 1.25×10^5 cells/well in a 24-well culture plate and were cultivated for 24 hours in a usual manner.
# as §1
# After the cultivation was finished, the cells were washed with PBS and then a 0.5 mg/mL MTT solution was added in an amount of 500 μL/well and the temperature was kept for 2 hours in an incubator. Thereafter, 1.5 mL of dimethyl sulfoxide was added thereto and then absorbance at a wavelength of 570 nm was measured and taken as an index of the number of living cells.
# A cell revival rate (%) in the case where the evaluation sample was added was determined, the number of living cells in the case where no evaluation sample was added being regarded as 100.
# [3] = high concentration region, data are not shown
smiles,measurement,setting,value
"OC[C@H]1O[C@@H](Oc2ccc(O)cc2)[C@H](O)[C@@H](O)[C@@H]1O [Arbutin, β-arbutin]",Melanin Production,"[1]; 16.338 μg/mL, 72 hours",69.5%
same,Melanin Production,"[1]; 54.46 μg/mL, 72 hours",49.9%
same,Melanin Production,"[1]; 163.38 μg/mL, 72 hours",28.4%
same,Melanin Production,"[1]; 544.6 μg/mL, 72 hours",20.7%
same,IC50,[1],54 µg/mL
same,cytotoxicity (in words),[2]; [3],cytotoxicity was observed
"O=c1oc2c(O)c(O)cc3c(=O)oc4c(O)c(O)cc1c4c23 [Ellagic acid, ellagic acid dihydrate]",Melanin Production,"[1]; 0.67646 μg/mL, 72 hours",79%
same,Melanin Production,"[1]; 2.02938 μg/mL, 72 hours",33%
same,IC50,[1],1.5 µg/mL
same,Cell survival rate,[2]; 0.67646 μg/mL,117.4%
same,Cell survival rate,[2]; 2.02938 μg/mL,107.3%
same,Cell survival rate,[2]; 6.7646 μg/mL,48.1%
same,Cell survival rate,[2]; 20.2938 μg/mL,25.8%
same,cytotoxicity (in words),[2]; high concentration region (up to 20.3 μg/mL),exhibited cytotoxicity
O=c1cc(CO)occ1O [Kojic acid],Melanin Production,"[1]; 8.5266 μg/mL, 72 hours",83.6%
same,Melanin Production,"[1]; 28.422 μg/mL, 72 hours",77.2%
same,Melanin Production,"[1]; 85.266 μg/mL, 72 hours",72.8%
same,Melanin Production,"[1]; 284.22 μg/mL, 72 hours",43.4%
same,IC50,[1],240 µg/mL
same,cytotoxicity (in words),[2]; [3],cytotoxicity was observed
COc1ccc(C(=O)[O-])c(O)c1.[K+] [Potassium 4-methoxysalicylate],Melanin Production,"[1]; 123.69 μg/mL, 72 hours",46.0%
same,Melanin Production,"[1]; 412.3 μg/mL, 72 hours",20.1%
same,IC50,[1],80 µg/mL
same,cytotoxicity (in words),[2]; [3],cytotoxicity was observed
"O=S(=O)([O-])O[C@@H](CO)[C@H](O)C[S@+]1C[C@@H](O)[C@H](O)[C@H]1CO [Salacinol, salacinol]",Melanin Production,"[1]; 1.998 μg/mL, 72 hours, melanin amount per unit cell",71%
same,Melanin Production,"[1]; 6.66 μg/mL, 72 hours",50%
same,Melanin Production,"[1]; 19.98 μg/mL, 72 hours",34%
same,melanin production inhibitory effect (in words),"[1]; B16 melanoma cells, 72 hours",concentration-dependent and remarkable melanin production inhibitory effect
same,IC50,[1],6.3 µg/mL
same,Cell survival rate,[2]; 1.998 μg/mL,89.6%
same,Cell survival rate,[2]; 6.66 μg/mL,85.0%
same,Cell survival rate,[2]; 19.98 μg/mL,87.9%
same,Cell survival rate,[2]; 66.6 μg/mL,78.8%
same,cytotoxicity (in words),[2]; concentration region up to 66.6 μg/mL,almost no cytotoxicity
